The values that follow come from patent publication US12187684B2, “Benzimidazole derivatives as modulators of retinoid-related orphan receptor gamma (RORγ) and pharmaceutical use thereof” (Jiangsu Hengrui Medicine Co., Ltd., priority 2018, dated 2025).

Broadly, the IC50 is the concentration at which inhibition is half-maximal.

The structures appear in SMILES notation.

The assay addresses T1, RORγ LBD-GST tagged (Homo sapiens, UniProt P51449).
T1 construct: RORγ LBD-GST tagged (Cat No. RORC-114H, Creative Biomart); purchased Creative Biomart RORC-114H
T1 sequence (P51449 269-508 limits assumed): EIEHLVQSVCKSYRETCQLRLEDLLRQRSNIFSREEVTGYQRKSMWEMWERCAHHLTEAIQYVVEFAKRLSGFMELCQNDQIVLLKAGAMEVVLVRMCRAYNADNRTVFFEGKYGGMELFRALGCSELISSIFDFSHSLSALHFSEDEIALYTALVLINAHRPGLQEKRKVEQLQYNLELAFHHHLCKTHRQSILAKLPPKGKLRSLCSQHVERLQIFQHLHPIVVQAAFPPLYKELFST
As to the kind of experiment: LanthaScreen TR-FRET RORγ coactivator assay. In kind it is biochemical. As to conditions: Fluorescein-D22 coactivator peptide, 1 hour room temperature. An excerpt: LanthaScreen TR-FRET Retinoid-Related Orphan Receptor Gamma (RORγ) Coactivator Assay Materials and Reagents • 1. […] Fluorescein-D22 coactivator peptide (Cat No. PV4386, Invitrogen) • 3. LanthaScreen™ Tb anti-GST antibody (Cat No. PV3550, Invitrogen) • 4. TR-FRET coregulatory buffer D (Cat No, PV4420, Invitrogen) • 5. DTT (Cat No. P2325, Fisher) • 6. […] Tecan Infinite M1000 plate reader (Tecan) Experimental Procedure Prepare Complete TR-FRET Coregulator Buffer D by adding 1 M DTT to TR-FRET Coregulator Buffer D to the final concentration of 5 mM DTT. Make compound dilution in Complete TR-FRET Coregulator Buffer D. Highest dose is 3 μM, 7-folder dilution for total 7 doses. Add 10 μL to each well of a 384-well plate. For the negative and positive controls, add 10 μL of Complete TR-FRET Coregulator Buffer D. Prepare RORγ LBD using Complete TR-FRET Coregulator Buffer D. The final concentration of RORγ LBD is 25 ng/reaction. Add 5 μL RORγ LBD to all the wells of the 384-well assay plate except negative wells which adding 5 μL Complete TR-FRET Coregulator Buffer D. Prepare a solution containing 0.6 μM Fluorescein-D22 and 8 nM Tb anti-GST antibody using Complete TR-FRET Coregulator Buffer D. Add 5 μL to all wells of the 384-well assay plate. Briefly and gently mix the 384-well plate on a plate shaker and incubate at room temperature protected from light for 1 hour. The plate may be sealed with a cover to minimize evaporation. Read the plate at wavelengths of 520 nm and 495 nm on Tecan Infinite M1000. IC50 values were calculated using GraphPad Prism by plotting the logarithm of compounds concentration versus percent inhibition.
In general terms: Time-resolved FRET reads energy transfer from a long-lived donor to a nearby acceptor.
`O=S(=O)(CC1CC1)c1ccc(Cc2nc3c(Cl)c(-c4ccccc4Cl)c(Cl)cc3[nH]2)cc1` [Example 93, 4,6-dichloro-5-(2-chlorophenyl)-2-(4-((cyclopropylmethyl)sulfonyl)benzyl)-1H-benzo[d]imidazole]: the IC50 is 0.075 µM. Under `CCS(=O)(=O)c1ccc(Cc2nc3c(C)c(-c4ccccc4C(F)(F)F)c(C)cc3[nH]2)cc1` [Example 115, 2-(4-(ethylsulfonyl)benzyl)-4,6-dimethyl-5-(2-(trifluoromethyl)phenyl)-1H-benzo[d]imidazole] stands 0.171 µM; under `CS(=O)(=O)c1ccc(Cc2nc3c(Cl)c(-c4ccccc4OC(F)(F)F)c(Cl)cc3[nH]2)cc1` [Example 56, 4,6-dichloro-2-(4-(methylsulfonyl)benzyl)-5-(2-(trifluoromethoxy)phenyl)-1H-benzo[d]imidazole], 0.879 µM; under `CCS(=O)(=O)c1ccc(C(CO)c2nc3c(F)c(-c4ccccc4F)c(F)cc3[nH]2)cc1` (centres unmarked) [Example 112, 2-(4,6-difluoro-5-(2-fluorophenyl)-1H-benzo[d]imidazol-2-yl)-2-(4-(ethylsulfonyl)phenyl)ethanol], 0.076 µM.

Take `O=S(=O)(CCF)c1ccc(C(CO)c2nc3c(Cl)c(-c4ccccc4OC(F)(F)F)c(Cl)cc3[nH]2)cc1` (centres unmarked) [Example 62, 2-(4,6-dichloro-5-(2-(trifluoromethoxy)phenyl)-1H-benzo[d]imidazol-2-yl)-2-(4-((2-fluoroethyl)sulfonyl)phenyl)ethanol]: inhibition was half-maximal at 0.154 µM (IC50). Under `N#Cc1ccccc1-c1c(Cl)cc2[nH]c(C(CO)c3ccc(S(=O)(=O)CC4CC4)cc3)nc2c1Cl` (centres unmarked) [Example 96, 2-(4,6-dichloro-2-(1-(4-((cyclopropylmethyl)sulfonyl)phenyl)-2-hydroxyethyl)-1H-benzo[d]imidazol-5-yl)benzonitrile] stands 0.123 µM; under `CCS(=O)(=O)c1ccc(C(CO)c2nc3c(F)c(-c4ccccc4)c(F)cc3[nH]2)cc1` (centres unmarked) [Example 114, 2-(4,6-difluoro-5-phenyl-1H-benzo[d]imidazol-2-yl)-2-(4-(ethylsulfonyl)phenyl)ethanol], 0.564 µM; under `CCS(=O)(=O)c1ccc(Cc2nc3c(Cl)c(-c4ccccc4OC(F)F)c(Cl)cc3[nH]2)c(Cl)c1` [Example 89, 4,6-dichloro-2-(2-chloro-4-(ethylsulfonyl)benzyl)-5-(2-(difluoromethoxy)phenyl)-1H-benzo[d]imidazole], 0.004 µM. The value for `CCS(=O)(=O)c1ccc(C(NC(=O)COC)c2nc3c(Cl)c(-c4ccccc4OC(F)F)c(Cl)cc3[nH]2)cc1` (centres unmarked) [Example 41, N-((4,6-dichloro-5-(2-(difluoromethoxy)phenyl)-1H-benzo[d]imidazol-2-yl)(4-(ethylsulfonyl)phenyl)methyl)-2-methoxyacetamide] was 0.683 µM.

As to `CCS(=O)(=O)c1ccc(C(O)c2nc3c(Cl)c(-c4ccccc4C(F)(F)F)c(Cl)cc3[nH]2)c(F)c1` (centres unmarked) [Example 79, (4,6-dichloro-5-(2-(trifluoromethyl)phenyl)-1H-benzo[d]imidazol-2-yl)(4-(ethylsulfonyl)-2-fluorophenyl)methanol], the half-inhibitory concentration (IC50) amounted to 0.048 µM. Under `O=S(=O)(CC(F)(F)F)c1ccc(C(CO)c2nc3c(Cl)c(-c4ccccc4OC(F)(F)F)c(Cl)cc3[nH]2)cc1` (centres unmarked) [Example 60, 2-(4,6-dichloro-5-(2-(trifluoromethoxy)phenyl)-1H-benzo[d]imidazol-2-yl)-2-(4-((2,2,2-trifluoroethyl)sulfonyl)phenyl)ethanol] stands 0.409 µM.

For `CCS(=O)(=O)c1ccc(Cc2nc3c(Cl)c(-c4ccccc4N(C)C)c(Cl)cc3[nH]2)cc1` [Example 27, 2-(4,6-dichloro-2-(4-(ethylsulfonyl)benzyl)-1H-benzo[d]imidazol-5-yl)-N,N-dimethylaniline], the concentration for half-maximal inhibition (IC50) came out at 0.489 µM. Under `CS(=O)(=O)c1ccc(Cc2nc3c(Cl)c(-c4ccccc4C(F)(F)F)c(Cl)cc3[nH]2)cc1` [Example 45, 4,6-dichloro-2-(4-(methylsulfonyl)benzyl)-5-(2-(trifluoromethyl)phenyl)-1H-benzo[d]imidazole] stands 0.535 µM; under `CCS(=O)(=O)c1ccc(Cc2nc3c(F)c(-c4ccccc4C(F)(F)F)c(F)cc3[nH]2)cc1` [Example 111, 2-(4-(ethylsulfonyl)benzyl)-4,6-difluoro-5-(2-(trifluoromethyl)phenyl)-1H-benzo[d]imidazole], 0.06 µM; under `NC(=O)CC(c1ccc(S(=O)(=O)CC2CC2)cc1)c1nc2cc(-c3ccccc3OC(F)F)c(Cl)cc2[nH]1` (single isomer, unassigned) [3-(6-chloro-5-(2-(difluoromethoxy)phenyl)-1H-benzo[d]imidazol-2-yl)-3-(4-((cyclopropylmethyl)sulfonyl)phenyl)propanamide], 0.21 µM.

`O=S(=O)(CC1CC1)c1ccc(C(O)c2nc3c(Cl)c(-c4ccccc4C(F)(F)F)c(Cl)cc3[nH]2)cc1` (centres unmarked) [Example 71, (4-((cyclopropylmethyl)sulfonyl)phenyl)(4,6-dichloro-5-(2-(trifluoromethyl)phenyl)-1H-benzo[d]imidazol-2-yl)methanol] returned an IC50 of 0.004 µM. Regarding `CCS(=O)(=O)c1ccc(C(NC(=O)c2c(C)noc2C)c2nc3c(Cl)c(-c4ccccc4OC(F)F)c(Cl)cc3[nH]2)cc1` (centres unmarked) [Example 42, N-((4,6-dichloro-5-(2-(difluoromethoxy)phenyl)-1H-benzo[d]imidazol-2-yl)(4-(ethylsulfonyl)phenyl)methyl)-3,5-dimethylisoxazole-4-carboxamide], the IC50 came to 0.113 µM. The value for `O=S(=O)(CC(F)(F)F)c1ccc(Cc2nc3c(Cl)c(-c4ccccc4OC(F)(F)F)c(Cl)cc3[nH]2)cc1` [Example 59, 4,6-dichloro-2-(4-((2,2,2-trifluoroethyl)sulfonyl)benzyl)-5-(2-(trifluoromethoxy)phenyl)-1H-benzo[d]imidazole] was 0.433 µM; that for `CCS(=O)(=O)c1ccc(Cc2nc3c(Cl)c(-c4ccccc4OC(F)F)c(Cl)cc3[nH]2)c(F)c1` [Example 83, 4,6-dichloro-5-(2-(difluoromethoxy)phenyl)-2-(4-(ethylsulfonyl)-2-fluorobenzyl)-1H-benzo[d]imidazole] was 0.065 µM; that for `CCCS(=O)(=O)c1ccc(C(O)c2nc3c(Cl)c(-c4ccccc4OC(F)(F)F)c(Cl)cc3[nH]2)cc1` (centres unmarked) [Example 52, (4,6-dichloro-5-(2-(trifluoromethoxy)phenyl)-1H-benzo[d]imidazol-2-yl)(4-(propylsulfonyl)phenyl)methanol] was 0.135 µM. `O=S(=O)(CC1CC1)c1ccc(C(O)c2nc3c(Cl)c(-c4ccccc4OC(F)(F)F)c(Cl)cc3[nH]2)c(Cl)c1` (centres unmarked) [Example 92, (2-chloro-4-((cyclopropylmethyl)sulfonyl)phenyl)(4,6-dichloro-5-(2-(trifluoromethoxy)phenyl)-1H-benzo[d]imidazol-2-yl)methanol] had an IC50 of 0.067 µM.

Turning to `CCS(=O)(=O)c1ccc(C(O)c2nc3c(Cl)c(-c4ccccc4OC(F)(F)F)c(Cl)cc3[nH]2)c(Cl)c1` (centres unmarked) [Example 88, (2-chloro-4-(ethylsulfonyl)phenyl)(4,6-dichloro-5-(2-(trifluoromethoxy)phenyl)-1H-benzo[d]imidazol-2-yl)methanol], half-maximal inhibition (IC50) was put at 0.162 µM. Turning to `COCCS(=O)(=O)c1ccc(C(CO)c2nc3c(Cl)c(-c4ccccc4OC(F)(F)F)c(Cl)cc3[nH]2)cc1` (centres unmarked) [Example 54, 2-(4,6-dichloro-5-(2-(trifluoromethoxy)phenyl)-1H-benzo[d]imidazol-2-yl)-2-(4-((2-methoxyethyl)sulfonyl)phenyl)ethanol], the IC50 stood at 0.367 µM. The value for `CCS(=O)(=O)c1ccc(Cc2nc3c(Cl)c(-c4ccccc4OC(C)C)c(Cl)cc3[nH]2)cc1` [Example 8, 4,6-dichloro-2-(4-(ethylsulfonyl)benzyl)-5-(2-isopropoxyphenyl)-1H-benzo[d]imidazole] was 0.903 µM; that for `CCS(=O)(=O)c1ccc(C(O)c2nc3c(C)c(-c4ccccc4OC)c(C)cc3[nH]2)cc1` (centres unmarked) [Example 118, (4-(ethylsulfonyl)phenyl)(5-(2-methoxyphenyl)-4,6-dimethyl-1H-benzo[d]imidazol-2-yl)methanol] was 0.306 µM. Under `O=S(=O)(NC1CC1)c1ccc(Cc2nc3c(Cl)c(-c4ccccc4OC(F)(F)F)c(Cl)cc3[nH]2)cc1` [Example 122, N-cyclopropyl-4-((4,6-dichloro-5-(2-(trifluoromethoxy)phenyl)-1H-benzo[d]imidazol-2-yl)methyl)benzenesulfonamide] stands 0.049 µM.
